Results as given in patent publication US10556888B2, “Pyrazole compounds or salts thereof, preparation methods therefor, herbicidal compositions and use thereof” (QINGDAO KINGAGROOT CHEMICAL COMPOUNDS CO., LTD, priority 2015, dated 2020).

Columns and labels:
[1] = test system: Monocotyledonous and dicotyledonous weed; experiment: Post-emergence test experiment, weed control effect (Table 2); format: in vivo; set-up: key to weed control effect, Setaria viridis (level) / weed control effect, Rorippa indica (level) / weed control effect, Abutilon theophrasti (level) / weed control effect, Echinochloa crus-galli (level) / weed control effect, Digitaria sanguinalis (level): Level 10: completely dead; Level 9: above 90% growth inhibition rate; Level 8: above 80% growth inhibition rate; Level 7: above 70% growth inhibition rate; Level 6: above 60% growth inhibition rate; Level 5: above 50% growth inhibition rate; Level 4: above 30% growth inhibition rate; Level 3: above 20% growth inhibition rate; Level 2: above 10% growth inhibition rate; Level 1: above 1-10% growth inhibition rate; Level 0: no effect; settings: 3 weeks after spraying, greenhouse
Procedure: (§1) Post-emergence test experiment: Monocotyledonous and dicotyledonous weed seeds and main crop seeds (i.e. wheat, corn, rice, soybean, cotton, oilseed, millet and sorghum.) were put into a plastic pot loaded with soil. Then covered with 0.5-2 cm soil, the seeds were allowed to grow in good greenhouse environment. The test plants were treated at 2-3 leaf stage 2-3 weeks after sowing. The test compounds of the invention were dissolved with acetone respectively, then added with 80 tween and diluted by certain amount of water to certain concentration. The solution was sprayed to the plants with a sprayer. Then the plants were cultured for 3 weeks in the greenhouse.

[2] = test system: main crop (wheat, corn, rice, soybean, cotton, oilseed, millet and sorghum); experiment: Post-emergence test experiment, main crops (Table 2); format: in vivo; set-up: key: Level 10: completely dead; Level 9: above 90% growth inhibition rate; Level 8: above 80% growth inhibition rate; Level 7: above 70% growth inhibition rate; Level 6: above 60% growth inhibition rate; Level 5: above 50% growth inhibition rate; Level 4: above 30% growth inhibition rate; Level 3: above 20% growth inhibition rate; Level 2: above 10% growth inhibition rate; Level 1: above 1-10% growth inhibition rate; Level 0: no effect; settings: 3 weeks after spraying, greenhouse
Procedure: as §1

SMILES | weed control effect, Abutilon theophrasti (level) ([1]; 60 g/ha) | weed control effect, Bidens pilosa (level) ([1]; 60 g/ha) | weed control effect, Digitaria sanguinalis (level) ([1]; 60 g/ha) | weed control effect, Echinochloa crus-galli (level) ([1]; 60 g/ha) | weed control effect, Rorippa indica (level) ([1]; 60 g/ha) | weed control effect, Setaria viridis (level) ([1]; 60 g/ha) | effect on crop, corn (level) ([2]; 60 g/ha) | effect on crop, rice (level) ([2]; 60 g/ha) | effect on crop, wheat (level) ([2]; 60 g/ha) | weed control effect, Abutilon theophrasti (level) ([1]; 120 g/ha) | weed control effect, Bidens pilosa (level) ([1]; 120 g/ha) | weed control effect, Digitaria sanguinalis (level) ([1]; 120 g/ha) | weed control effect, Echinochloa crus-galli (level) ([1]; 120 g/ha) | weed control effect, Rorippa indica (level) ([1]; 120 g/ha) | weed control effect, Setaria viridis (level) ([1]; 120 g/ha) | effect on crop, corn (level) ([2]; 120 g/ha) | effect on crop, rice (level) ([2]; 120 g/ha) | effect on crop, wheat (level) ([2]; 120 g/ha)
Cc1nn(C)cc1C(=O)Oc1c(C(=O)c2ccc(S(C)(=O)=O)c(Cn3cccn3)c2Cl)c(C)nn1C [Compound 01] | 10 | 8 (Level 8: above 80% growth inhibition rate) | 10 | 10 | 10 | 10 | 1 (Level 1: above 1-10% growth inhibition rate) | 1 (Level 1: above 1-10% growth inhibition rate) | 1 (Level 1: above 1-10% growth inhibition rate) |  |  |  |  |  |  |  |  | 
Cc1cc(C)n(Cc2c(S(C)(=O)=O)ccc(C(=O)c3c(C)nn(C)c3OC(=O)c3cn(C)nc3C)c2Cl)n1 [Compound 03] |  |  |  |  |  |  |  |  |  | 4 (Level 4: above 30% growth inhibition rate) | 6 (Level 6: above 60% growth inhibition rate) | 0 | 10 | 0 | 6 (Level 6: above 60% growth inhibition rate) | 0 | 0 | 0
Cc1cnn(Cc2c(S(C)(=O)=O)ccc(C(=O)c3c(C)nn(C)c3OC(=O)c3cn(C)nc3C)c2Cl)c1 [Compound 04] |  |  |  |  |  |  |  |  |  | 6 (Level 6: above 60% growth inhibition rate) | 6 (Level 6: above 60% growth inhibition rate) | 1 (Level 1: above 1-10% growth inhibition rate) | 10 | 4 (Level 4: above 30% growth inhibition rate) | 5 (Level 5: above 50% growth inhibition rate) | 0 | 0 | 0
Cc1nn(C)cc1C(=O)Oc1c(C(=O)c2ccc(S(C)(=O)=O)c(Cn3cc(Cl)cn3)c2Cl)c(C)nn1C [Compound 05] |  |  |  |  |  |  |  |  |  | 9 (Level 9: above 90% growth inhibition rate) | 8 (Level 8: above 80% growth inhibition rate) | 9 (Level 9: above 90% growth inhibition rate) | 10 | 10 | 5 (Level 5: above 50% growth inhibition rate) | 0 | 1 (Level 1: above 1-10% growth inhibition rate) | 0
Cc1cnn(Cc2c(S(C)(=O)=O)ccc(C(=O)c3cnn(C)c3OC(=O)c3cn(C)nc3C)c2Cl)c1 [Compound 07] |  |  |  |  |  |  |  |  |  | 6 (Level 6: above 60% growth inhibition rate) | 6 (Level 6: above 60% growth inhibition rate) | 1 (Level 1: above 1-10% growth inhibition rate) | 10 | 4 (Level 4: above 30% growth inhibition rate) | 5 (Level 5: above 50% growth inhibition rate) | 0 | 0 | 0
Cc1nn(C)cc1C(=O)Oc1c(C(=O)c2ccc(S(C)(=O)=O)c(Cn3cccn3)c2Cl)cnn1C [Compound 08] | 10 | 8 (Level 8: above 80% growth inhibition rate) | 7 (Level 7: above 70% growth inhibition rate) | 9 (Level 9: above 90% growth inhibition rate) | 10 | 7 (Level 7: above 70% growth inhibition rate) | 1 (Level 1: above 1-10% growth inhibition rate) | 1 (Level 1: above 1-10% growth inhibition rate) | 1 (Level 1: above 1-10% growth inhibition rate) |  |  |  |  |  |  |  |  | 
Cc1ccn(Cc2c(S(C)(=O)=O)ccc(C(=O)c3c(C4CC4)nn(C)c3OC(=O)c3cn(C)nc3C)c2Cl)n1 [Compound 09] |  |  |  |  |  |  |  |  |  | 7 (Level 7: above 70% growth inhibition rate) | 9 (Level 9: above 90% growth inhibition rate) | 2 (Level 2: above 10% growth inhibition rate) | 9 (Level 9: above 90% growth inhibition rate) | 10 | 6 (Level 6: above 60% growth inhibition rate) | 0 | 1 (Level 1: above 1-10% growth inhibition rate) | 0
Cc1cc(C)n(Cc2c(S(C)(=O)=O)ccc(C(=O)c3c(C4CC4)nn(C)c3OC(=O)c3cn(C)nc3C)c2Cl)n1 [Compound 11] |  |  |  |  |  |  |  |  |  | 4 (Level 4: above 30% growth inhibition rate) | 6 (Level 6: above 60% growth inhibition rate) | 0 | 10 | 0 | 6 (Level 6: above 60% growth inhibition rate) | 0 | 0 | 0
Cc1cnn(Cc2c(S(C)(=O)=O)ccc(C(=O)c3c(C4CC4)nn(C)c3OC(=O)c3cn(C)nc3C)c2Cl)c1 [Compound 12] |  |  |  |  |  |  |  |  |  | 6 (Level 6: above 60% growth inhibition rate) | 6 (Level 6: above 60% growth inhibition rate) | 0 | 10 | 4 (Level 4: above 30% growth inhibition rate) | 1 (Level 1: above 1-10% growth inhibition rate) | 0 | 0 | 0
Cc1nn(C)cc1C(=O)Oc1c(C(=O)c2ccc(S(C)(=O)=O)c(Cn3cccn3)c2Cl)c(C2CC2)nn1C [Compound 13] | 10 | 8 (Level 8: above 80% growth inhibition rate) | 10 | 10 | 10 | 7 (Level 7: above 70% growth inhibition rate) | 0 | 1 (Level 1: above 1-10% growth inhibition rate) | 1 (Level 1: above 1-10% growth inhibition rate) |  |  |  |  |  |  |  |  | 
Cc1cnn(Cc2c(S(C)(=O)=O)ccc(C(=O)c3c(C)nn(C)c3OC(=O)c3cnn(C)c3)c2Cl)c1 [Compound 14] |  |  |  |  |  |  |  |  |  | 6 (Level 6: above 60% growth inhibition rate) | 6 (Level 6: above 60% growth inhibition rate) | 0 | 10 | 4 (Level 4: above 30% growth inhibition rate) | 1 (Level 1: above 1-10% growth inhibition rate) | 0 | 0 | 0
Cc1ccn(Cc2c(S(C)(=O)=O)ccc(C(=O)c3c(C)nn(C)c3OC(=O)c3cnn(C)c3)c2Cl)n1 [Compound 15] |  |  |  |  |  |  |  |  |  | 9 (Level 9: above 90% growth inhibition rate) | 8 (Level 8: above 80% growth inhibition rate) | 4 (Level 4: above 30% growth inhibition rate) | 10 | 10 | 5 (Level 5: above 50% growth inhibition rate) | 0 | 1 (Level 1: above 1-10% growth inhibition rate) | 0
Cc1nn(C)c(OC(=O)c2cnn(C)c2)c1C(=O)c1ccc(S(C)(=O)=O)c(Cn2cccn2)c1Cl [Compound 16] | 10 | 8 (Level 8: above 80% growth inhibition rate) | 10 | 10 | 10 | 8 (Level 8: above 80% growth inhibition rate) | 0 | 1 (Level 1: above 1-10% growth inhibition rate) | 1 (Level 1: above 1-10% growth inhibition rate) |  |  |  |  |  |  |  |  | 
